Reference: patent US8778340B2, “Anti-angiogenesis therapy for the treatment of ovarian cancer” (priority 2010, dated 2014)

Tests used:
[1] = system: newly diagnosed high risk FIGO stage I-IIa and stage IIb-IV epithelial ovarian, fallopian tube or primary peritoneal cancer; test: ICON7 phase III randomized two-arm trial of adding bevacizumab to carboplatin and paclitaxel (Example 2); assay type: in vivo, human; details: for PFS hazard ratio (HR) (95% CI): CPB7.5+ versus CP, Log-Rank Test p 0.0010
Excerpt: Results are presented from a phase III randomized study (ICON7) to evaluate the safety and efficacy of adding bevacizumab to standard chemotherapy with carboplatin and paclitaxel. The primary endpoint was to determine whether the addition of bevacizumab to standard chemotherapy improves progression free survival (PFS) when compared to standard chemotherapy alone in women with newly diagnosed, histologically confirmed, high risk International Federation of Gynaecology and Obstetrics (FIGO) stage I and IIa (Grade 3 or clear cell carcinoma only) and FIGO stage IIb-IV (all grades and all histological types) epithelial ovarian, fallopian tube or primary peritoneal cancer, who have undergone initial surgery (either debulking cytoreductive surgery or a biopsy if the patient has FIGO stage IV disease) and who would not be considered for cytoreductive surgery prior to disease progression. Secondary endpoints included overall survival (OS), response rate, duration of response, biological progression free interval (defined by increasing CA 125 or PFIBIO), safety and quality of life. ICON7 was a 2-arm randomized clinical trial comparing standard therapy (carboplatin and paclitaxel) with one investigational arm incorporating bevacizumab in combination with paclitaxel and carboplatin (see FIG. 8). A total of 1528 eligible women participated in the trial.
ICON7 included patients with newly diagnosed, histologically confirmed, high risk FIGO stage I and IIa (Grade 3 or clear cell carcinoma only) and FIGO stage IIb-IV (all grades and all histological types) epithelial ovarian, fallopian tube or primary peritoneal cancer, who have undergone initial surgery (either debulking cytoreductive surgery or a biopsy if the patient has FIGO stage IV disease) and who will not be considered for cytoreductive surgery prior to disease progression. Patients with measurable and non-measurable disease are eligible. Patients were considered eligible for enrollment in this trial if they fulfilled all the inclusion criteria and none of the exclusion criteria as described below:
Tumor assessments, either by CT or MRI scan, with measurements using the RECIST criteria, were performed after three and six cycles of chemotherapy, and at around nine months and 12 months in the first year, or after cycle 12 and cycle 18 of treatment for patients on the research arm. In the second and third year of the trial tumour assessments were repeated every six months and thereafter as clinically indicated. These scans were performed irrespective of whether the patient has been optimally or sub-optimally debulked, and irrespective of whether there is measurable disease, or not, on the baseline scan.
Patients were clinically assessed and CA 125 measured at the start of every chemotherapy cycle and then six weekly during the first year of the trial. In the second and third year of the trial patients were assessed and CA 125 measured every three months. In the fourth and fifth year patients were clinically assessed and CA 125 measured every six months. Thereafter assessments were yearly. Progression based on CA 125 criteria alone were verified with a CT scan. If this was negative then it was repeated at the time of suspected clinical progression.
Regular physical examination and routine blood tests were performed during treatment to monitor patient safety. Quality of life (QoL) were assessed using the EORTC QLQ C-30+OV-28 and EQ-5D questionnaires at the start of every chemotherapy cycle, every six weeks until the end of the first year and then every three months until treatment for progression commenced, or to the end of year two. An additional QoL form was completed by all patients still alive three years after randomisation. Adverse events and medical resource use were documented during the study treatment and follow-up period.

[2] = system: platinum-sensitive recurrent epithelial ovarian, primary peritoneal, or fallopian tube carcinoma; test: OCEANS phase III placebo-controlled trial of carboplatin and gemcitabine plus bevacizumab (Example 3); assay type: in vivo, human
Protocol: This example describes a placebo-controlled, randomized, multicenter Phase III study evaluating the efficacy and safety of bevacizumab (15 mg/kg, Day 1, every 21 days), administered in combination with carboplatin (area under the curve [AUC] 4, Day 1, every 21 days) with gemcitabine (1000 mg/m2, Day 1 and Day 8, every 21 days) in women with platinum sensitive recurrent epithelial ovarian, primary peritoneal, or fallopian tube carcinoma. About 480 patients were enrolled over a period of approximately 2.5 years. Patients were randomized in either carboplatin and gemcitabine with placebo versus carboplatin and gemcitabine with bevacizumab. […]
This phase III study of bevacizumab plus chemotherapy in women with ovarian cancer met its primary endpoint. […] PFS is defined as the time from randomization to disease progression as determined by the investigator or death due to any cause, whichever occurs first. The primary endpoint of PFS was assessed by the study investigators. Measurable disease was investigator assessed using modified RECIST (Therasse et al. 2000), e.g., every 9 weeks throughout the course of the study. […]

[3] = system: newly diagnosed, previously untreated, stage III or IV epithelial ovarian, primary peritoneal or fallopian tube cancer; test: Phase III trial of carboplatin and paclitaxel plus placebo versus plus concurrent bevacizumab versus plus concurrent and extended bevacizumab (Example 1, GOG 0218); assay type: in vivo, human; details: preliminary assessment of safety
Excerpt: Primary Objectives include to determine if the addition of 5 concurrent cycles of bevacizumab to 6 cycles of standard therapy (carboplatin and paclitaxel) [Arm II] increases the duration of progression-free survival (PFS) when compared to 6 cycles of standard therapy alone [Arm I] in women with newly diagnosed stage III (with any gross residual disease) and stage IV, epithelial ovarian, peritoneal primary or fallopian tube cancer; and, to determine if the addition of 5 concurrent cycles of bevacizumab plus extended bevacizumab for 16 cycles beyond the 6 cycles of standard therapy (carboplatin and paclitaxel) [Arm III] increases progression-free survival when compared to 6 cycles of standard therapy [Arm I] in women with newly diagnosed stage III (with any gross residual disease) and stage IV, epithelial ovarian, peritoneal primary or fallopian tube cancer.
In this study two experimental arms were selected to compare with standard cytotoxic chemotherapy with paclitaxel and carboplatin: one incorporating 5 cycles of bevacizumab (concurrent bevacizumab) and the other with bevacizumab for an additional 16 cycles after completion of chemotherapy with paclitaxel and carboplatin (extended bevacizumab). Calvert Formula for Carboplatin (AUC) Dosing: Total dose(mg)=target AUC(in mg/mL/minute)*[GFR(in mL/minute)+25]. […]

[4] = system: persistent or recurrent epithelial ovarian cancer or primary peritoneal cancer; details: 15 mg/kg every 21 days, cited from earlier work
[5] = system: platinum resistant ovarian cancer or primary peritoneal serous cancer; details: same dose and schedule as GOG 170-D; 44 patients; cited from earlier work

Question: What does the source list for “CPB7.5+: ICON7 chemotherapy plus bevacizumab arm (Arm B), bevacizumab continued as maintenance for a total duration of 12 months”?
Answer: PFS hazard ratio (HR) (95% CI) [1]: 0.79 (0.68; 0.91); PFS hazard ratio (HR) (95% CI) ([1]; listed as paclitaxel, carboplatin and anti-VEGF antibody): 0.79; All Deaths ([1]; number of patients (percent)): 107 (14.3%); All Related Deaths ([1]; number of patients (percent)): 5 (0.7%); Deaths not due to Progression ([1]; number of patients (percent)): 19 (2.5%); Pts w. Grade 3/4/5 AE ([1]; number of patients (percent)): 479 (64.2%); Pts w. Serious AE ([1]; number of patients (percent)): 279 (37.4%); Pts who Disc. Any Treatment ([1]; number of patients (percent)): 293 (39.3%); Pts who Disc. Any Treatment due to AE ([1]; number of patients (percent)): 162 (21.7%); PFS median ([1]; primary analysis of PFS): 18.3 months; difference in median PFS ([1]; versus paclitaxel and carboplatin alone): 2.3 months

Question: With “bevacizumab plus chemotherapy: OCEANS: Avastin 15 mg/kg with carboplatin and gemcitabine, followed by Avastin alone until disease progression” as the substance, how does the “progression-free survival compared to chemotherapy alone” value ([2]; investigator assessed, modified RECIST, followed by bevacizumab alone until disease progression) read?
Answer: The value was “increased”.

Question: Which results are given for “bevacizumab: recombinant humanized anti-VEGF monoclonal antibody; human IgG1 framework with CDRs from murine antibody A.4.6.1”?
Answer: tolerability of the treatment regimen / adverse events [3]: generally well tolerated; preliminary assessment of adverse events ([1]; in vivo): consistent with previous studies; safety findings / adverse events ([2]; in vivo): No new safety findings were observed; response rate ([4]; NCI RECIST): 21%; median PFS [4]: 4.7 months; progression-free for at least 6 months [4]: 40%; progression-free for at least 6 months [5]: 27%; responses [5]: 16%
